Results published in article PMC4322223, “Biochemical and structural characterization of a thermostable β-glucosidase from Halothermothrix orenii for galacto-oligosaccharide synthesis” (Applied Microbiology and Biotechnology, 2014).

Molecular target: T1, HoBGLA (Halothermothrix orenii, UniProt B8CYA8)
T1 construct: gene Hore_15280; full length, 451 residues, GH1; pNIC28-Bsa4 N-terminal His6-TEV tag cut off with TEV protease; expressed in E. coli BL21(DE3); 53 kDa
Assay: X-ray crystal structure, […] Å, crystal soaked with cellobionolactam
Type: binding
Conditions: pH 5.5; subsite −1, non-covalent, glucose left after cleavage of cellobionolactam

T1 sequence (B8CYA8 entry or part of it): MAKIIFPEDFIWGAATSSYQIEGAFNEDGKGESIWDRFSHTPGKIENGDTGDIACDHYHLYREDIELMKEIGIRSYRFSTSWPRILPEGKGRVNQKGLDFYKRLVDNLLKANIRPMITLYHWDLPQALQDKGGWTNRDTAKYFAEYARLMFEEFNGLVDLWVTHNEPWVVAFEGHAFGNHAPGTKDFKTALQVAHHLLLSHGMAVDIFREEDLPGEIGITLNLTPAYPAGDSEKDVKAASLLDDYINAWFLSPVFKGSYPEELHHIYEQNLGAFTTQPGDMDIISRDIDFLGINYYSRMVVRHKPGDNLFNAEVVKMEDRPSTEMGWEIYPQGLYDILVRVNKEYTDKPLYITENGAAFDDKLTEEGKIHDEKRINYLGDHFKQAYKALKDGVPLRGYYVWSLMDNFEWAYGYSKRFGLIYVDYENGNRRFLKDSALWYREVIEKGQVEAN

OC[C@H]1O[C@@H](O)[C@H](O)[C@@H](O)[C@@H]1O [D-glucose]
X-ray crystal structure, 1.80 Å, crystal soaked with cellobionolactam: The crystal structure of HoBGLA in complex with glucose, representing the post-hydrolysis state
